# Reference: PubChem BioAssay AID720587 (Broad Institute, 2013)
# Test system: A673 Ewing sarcoma viability, CellTiter-Glo ATP luminescence, 72 h
# Assay: EWS/Fli1-dependent A673 cell killing, confirmation, CellTiter-Glo luminescence, cherry-pick retest (AID 720587)
row,SMILES,AC35
1,C[C@H]1CN([C@@H](C)CO)C(=O)c2cc(NC(=O)C3CCCCC3)ccc2O[C@H]1CN(C)Cc1ccc(C(=O)Nc2ccccc2N)cc1,11.5 µM
2,C[C@H]1CN([C@@H](C)CO)C(=O)c2cccc(NC(=O)c3ccc(-c4nccs4)cc3)c2O[C@@H]1CN(C)Cc1ccc(C(=O)Nc2ccccc2N)cc1,18.1 µM
3,COc1ccc(-c2ccc3c(c2)[C@H]2[C@H](CCN2S(=O)(=O)c2ccc(OC)cc2)[C@@H](CO)N3C)cc1,6.76 µM
4,CN(CCO)c1ccc(/C=N/Nc2nncc3ccccc23)cc1,19.9 µM
5,BrC(=C\c1ccccc1)/C=N/n1cnnc1,2.23 µM
6,O=C1Nc2cc(C(=O)NCCN3CCCCCC3)ccc2S/C1=C\c1ccccc1,8.37 µM
7,C[C@H]1CN([C@@H](C)CO)C(=O)Cc2cc(NC(=O)CCC(F)(F)F)ccc2O[C@H]1CN(C)Cc1ccc(C(=O)Nc2ccccc2N)cc1,8.75 µM
8,C[C@]12CC[C@H](O)C[C@H]1CC[C@@H]1[C@@H]2CC[C@]2(C)[C@@H](C3=CC(=O)OC3)CC[C@]12O,0.62 µM
9,C[C@@H]1CN([C@@H](C)CO)C(=O)c2cc(NS(=O)(=O)c3ccc(F)cc3)ccc2O[C@@H]1CN(C)Cc1ccc(C(=O)Nc2ccccc2N)cc1,11.3 µM
10,COc1ccc(N=C2C(=O)Nc3ccc(C)c(Br)c32)cc1,17 µM
11,COc1cc(-c2coc3c(C(=O)NCc4ccc(C(F)(F)F)cc4)cccc23)ccc1O,13.7 µM
12,CN=c1scc(-c2ccccc2F)n1/N=C/c1ccc(O)c(O)c1O,11.6 µM
13,C[C@@H]1CCCCO[C@H](CN(C)Cc2ccc(C(=O)Nc3ccccc3N)cc2)[C@@H](C)CN([C@H](C)CO)C(=O)c2cc(NS(=O)(=O)c3ccc(F)cc3)ccc2O1,14.1 µM
14,C[C@H]1CN([C@@H](C)CO)C(=O)c2cc(NS(=O)(=O)c3ccc(Cl)cc3)ccc2O[C@H]1CN(C)Cc1ccc(C(=O)Nc2ccccc2N)cc1,13.1 µM
15,N#CC(C#N)=C1C=CC=CN1/C(=C\c1ccco1)C(=O)c1ccc(Cl)cc1,3.04 µM
16,CCN1C/C(=C/c2ccc(OC)c(O)c2)C(=O)/C(=C/c2ccc(OC)c(O)c2)C1,11.1 µM
17,Cc1c(CCOC(=O)CC23CC4CC(CC(C)(C4)C2)C3)sc[n+]1CC(=O)c1ccccc1,19.5 µM
18,C=C1C(=O)OC2C1CCC(C)C1(O)C=CC(=O)C21C (stereo not drawn),6.43 µM
19,Cc1ccc(C(=O)O/N=C(\N)c2ccccn2)cc1,17.7 µM
20,C[C@H]1CN([C@@H](C)CO)C(=O)c2cc(N(C)C)ccc2O[C@H]1CN(C)Cc1ccc(C(=O)Nc2ccccc2N)cc1,8.84 µM
21,O=c1ccc2[n+]([O-])c3ccc(O)cc3oc-2c1,8.92 µM

row,SMILES,AC35
1,C[C@H](CO)N1C[C@H](C)[C@H](CN(C)CC2CCCCC2)Oc2ccc(NC(=O)Nc3cccc4ccccc34)cc2C1=O,18.7 µM
2,O=C(C[C@H]1C[C@H]2c3cc(NS(=O)(=O)c4ccc(F)cc4)ccc3O[C@H]2[C@H](CO)O1)NCc1ccc(Oc2ccccc2)cc1,12.6 µM
3,COc1ccc(CN(C)c2ncnc3sccc23)c(OC)c1OC,15.3 µM
4,N#CC(=C1C=CC(=NO)C(Cl)=C1)c1ccccc1,5.59 µM
5,COc1ccc(S(=O)(=O)Nc2ccc3c(c2)C(=O)N([C@H](C)CO)C[C@@H](C)[C@@H](CN(C)Cc2ccc(C(=O)Nc4ccccc4N)cc2)O3)cc1,12.5 µM
6,CCCCCCCN(c1ccccc1)[C@@H]1C[C@H]2CCCC(=O)N3CC[C@@H](C1)[C@@H]23,10.2 µM
7,Nc1nc(=S)c2ncn([C@@H]3O[C@H](CO)[C@@H](O)[C@H]3O)c2[nH]1,1.53 µM
8,COc1cc(/C=C/C(=O)/C=C(O)/C=C/c2ccc(O)c(OC)c2)ccc1O,2.13 µM
9,N#C[C@H]1N[C@H](CO)[C@H]1c1ccc(C#Cc2ccc(F)cc2)cc1,20.2 µM
10,COc1ccc(NC(=O)N2CCCCN3[C@H](CO)[C@H](c4ccc(C#CCC(C)C)cc4)[C@H]3C2)cc1,6.47 µM
11,O=C(O)c1ccc(N/N=C/c2ccc3c(c2)OCO3)cc1,16.5 µM
12,Cc1nc(N)nc(N)c1/C=C/C(C)(C)c1ccc(Cl)cc1,< 0.011 µM
13,CCOc1ccc(OCc2ccc(C(=O)NN=Cc3ccc[nH]3)cc2)cc1,0.667 µM
14,CCCCc1c(Cc2ccccc2)ncn1CCc1ccccc1OC,15 µM
15,Cc1cccc(N2CCN(C3C(=O)Nc4ccccc4-n4nnnc43)CC2)c1C (stereo not drawn),13.1 µM
16,Cc1ccc(C(C(=O)NCc2ccco2)N(C(=O)CNC(=O)c2cccs2)c2c(C)cc(C)cc2C)cc1 (stereo not drawn),14.6 µM
17,Nc1sc(-c2ccccc2)cc1-c1n[nH]c(=S)n1C1CCCCC1,6.83 µM
18,CC(=NNc1ccc2ccccc2n1)c1ccccc1O,13.9 µM
19,C[C@@H]1O[C@@H](O[C@@H]2C=C3CCC4C(CC[C@]5(C)[C@@H](c6ccc(=O)oc6)CC[C@]45O)[C@@]3(C)CC2)[C@H](O)[C@H](O)[C@H]1O (stereo partly drawn),0.0136 µM
20,CC1OC(OC2CC(O)C3(CO)C4C(O)CC5(C)C(C6=CC(=O)OC6)CCC5(O)C4CCC3(O)C2)C(O)C(O)C1O (stereo not drawn),0.105 µM
21,C[C@H](CO)N1C[C@H](C)[C@H](CN(C)Cc2ccc(C(=O)Nc3ccccc3N)cc2)Oc2c(cccc2N(C)C)C1=O,17.6 µM

row,SMILES,AC35
1,C[C@@H]1CN([C@@H](C)CO)S(=O)(=O)c2ccc(C#CC(C)(C)O)cc2O[C@H]1CN(C)Cc1ccc(-c2ccccc2)cc1,5.75 µM
2,COC(=O)C[C@@H]1CC[C@@H]2[C@H](COc3ccc(NC(=O)c4cc(C)on4)cc3C(=O)N2C)O1,14.5 µM
3,CCc1ccc2oc(C(=O)N3CCN(c4ccccc4OC)CC3)cc(=O)c2c1,14.3 µM
4,COC(=O)C[C@@H]1CC[C@@H]2[C@@H](COc3ccc(NC(=O)Nc4ccc(C#N)cc4)cc3C(=O)N2C)O1,9.7 µM
5,C[C@@H]1CN([C@H](C)CO)C(=O)c2cc(NC(=O)CCCCCC(=O)Nc3ccccc3N)ccc2O[C@@H]1CN(C)Cc1ccc(Cl)c(Cl)c1,9.95 µM
6,COc1cccc(CN2CCC2(C)C(=O)Nc2cccc3cccnc23)c1F (stereo not drawn),14.3 µM
7,COc1ccccc1NC(=O)N1CCCCN2[C@H](CO)[C@H](c3ccc(-c4cccc(C)c4)cc3)[C@H]2C1,9.29 µM
8,COc1cccc(Sc2ccccc2/C=N/NC(N)=O)c1,2.23 µM
9,C=C1C(=O)O[C@@H]2[C@H]1[C@@H](OC(=O)/C(C)=C/C)C/C(C)=C\C(=O)/C=C(\C)[C@@H]2O,3.23 µM
10,COc1ccc(C2=Nn3c(nnc3-c3ccccc3OC)SC2)cc1OCC1CC1,4.88 µM
11,C[C@@H]1CN([C@H](C)CO)C(=O)c2cc(N(C)C)ccc2O[C@H]1CN(C)Cc1ccc(C(=O)Nc2ccccc2N)cc1,16.7 µM
12,Nc1nc(N)c(-c2cccc(C(F)(F)F)c2)c(Cc2cccc(C(F)(F)F)c2)n1,5.72 µM
13,Cc1noc(C)c1C(=O)Nc1sccc1C(N)=O,14.3 µM
14,CCc1ccc(S(=O)(=O)c2ccc(-n3nc(C)cc3N)cc2)cc1,17.8 µM
15,O=C(CCc1ccccc1)NC(c1cccs1)c1cc(Cl)c2cccnc2c1O (stereo not drawn),0.694 µM
16,COc1cc(/C=C/C(=O)CC(=O)/C=C/c2ccc(O)c(OC)c2)ccc1O,2.54 µM
17,C[C@@H]1CN([C@H](C)CO)C(=O)c2cc(C#CCN(C)C)cnc2O[C@H]1CN(C)Cc1ccc(-c2ccccc2)cc1,10.2 µM
18,O=C1NC(=O)N(Cc2ccco2)C(=O)/C1=C/C=C/c1ccco1,5.61 µM
19,COC(=O)C[C@@H]1CC[C@@H]2[C@@H](COc3ccc(NC(=O)Nc4ccccc4C)cc3C(=O)N2C)O1,19.7 µM
20,OC[C@H]1O[C@@H](n2cnc3c(NCc4ccco4)ncnc32)[C@H](O)[C@@H]1O,3.68 µM
21,Cc1ccccc1NC(=O)C(=Cc1ccc(C(=O)O)cc1)C(=O)Nc1ccccc1C,5.97 µM
